Starred links: 1 amine or outer side, 2 acyl side, 3 side chain; linkers in the order of their positions; H or OH if unused. Non-standard residues stand in square brackets, D forms with d. Residues, ends and D or L forms follow the SMILES beside them. Groups on a side chain read outwards from the residue. *: point of attachment. C18 diacid = O=C(O)CCCCCCCCCCCCCCCCC(=O)*; γGlu = O=C(O)[C@H](CCC(=O)[*:2])N[*:1]; αMeF = C[C@](N)(Cc1ccccc1)C(=O)O; Aib = CC(C)(N)C(=O)O
Assays:
[1] = Mouse acute food intake study; assay type: in vivo; details: male C57Bl/6 mice, s.c., dose 10 nmol/kg, cumulative food intake at 24 hr vs vehicle
How it was run: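 Peptide or vehicle went subcutaneously (5 mL/kg) to 6-8 h-fasted male C57Bl/6 mice shortly before the dark phase, with groups balanced on body weight and 24-hour intake. Cumulative food consumption was derived from 48 h of automated BioDaq monitoring with free food and water access.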

[2] = Proteolytic resistance to FasSSGF containing porcine pancreatic pepsin; assay type: in vitro ADME; details: pig, simulated gastric fluid
How it was run: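 Peptide (250 μM stock in FasSSGF) mixed 1:1 with porcine pepsin stock (0.5 mg/mL in FasSSGF) and held at 37° C; samples at 0, 5, 10, 15 and 30 min quenched in ammonium bicarbonate, pH 8. Intact peptide remaining estimated by RP-HPLC peak area, UV 210 nm.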

recombinant Neprilysin = molecular target: T1, recombinant Neprilysin (Homo sapiens, UniProt P08473); assay: Proteolytic resistance to neprilysin; assay type: in vitro ADME; details: pH 8.3
T1 construct: purchased R&D Systems 1182-ZNC-010
T1 sequence (P08473 52-750 limits assumed): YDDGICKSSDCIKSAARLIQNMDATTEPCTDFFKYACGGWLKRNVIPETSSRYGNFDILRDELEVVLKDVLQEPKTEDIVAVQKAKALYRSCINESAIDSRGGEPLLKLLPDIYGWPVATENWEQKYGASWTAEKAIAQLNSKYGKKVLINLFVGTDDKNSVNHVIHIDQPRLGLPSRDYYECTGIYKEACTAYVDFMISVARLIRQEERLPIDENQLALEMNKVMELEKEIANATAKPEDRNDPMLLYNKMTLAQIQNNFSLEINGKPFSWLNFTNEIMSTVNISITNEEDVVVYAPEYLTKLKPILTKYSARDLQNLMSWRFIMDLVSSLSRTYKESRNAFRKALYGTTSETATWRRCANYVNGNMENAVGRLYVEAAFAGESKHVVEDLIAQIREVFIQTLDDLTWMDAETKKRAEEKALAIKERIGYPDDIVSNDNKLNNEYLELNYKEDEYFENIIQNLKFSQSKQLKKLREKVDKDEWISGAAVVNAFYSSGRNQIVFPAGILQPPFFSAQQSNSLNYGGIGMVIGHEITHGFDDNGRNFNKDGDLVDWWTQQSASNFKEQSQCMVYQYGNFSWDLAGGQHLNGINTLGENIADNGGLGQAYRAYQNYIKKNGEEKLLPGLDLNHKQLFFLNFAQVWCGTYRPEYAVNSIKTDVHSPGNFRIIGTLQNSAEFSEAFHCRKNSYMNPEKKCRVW
How it was run: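 Peptide stock (~250 μM) mixed 1:1 with neprilysin stock (100 μg/mL) in Tris/NaCl/NaHCO3 buffer, pH 8.3, at 37° C. Aliquots at 0, 30 min, 1, 2, 4, 24 h quenched in TFA/acetonitrile. Intact peptide estimated by RP-HPLC peak area at 210 nm.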

wildtype (WT) mice = assay: Glucose change in wildtype mice; assay type: in vivo, mouse; details: s.c., 120 min vs 0 min, somatostatin pretreatment (octreotide) 30 min prior to cpd
How it was run: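 Wildtype mice aged 8-14 weeks, fasted 2 h, sometimes pre-treated with octreotide 10 mg/kg 30 min before peptide injection. Blood glucose by glucometer at -30, 0, 30, 60, 120, 180, 240 and 360 min; n=4-8/group, mice reused up to 3 times with ≥1 week wash-out.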

[3] = molecular target: human glucagon receptor (hGCGR) (Homo sapiens, UniProt P47871); assay: cAMP production (HTRF) in CHO cells expressing hGCGR; assay type: cell-based; design: expressed in transfected cells; details: Table 6, peptides modified at position 17; cAMP in CHO hGCGR cells; geometric mean; read-out: hGluc-R EC50
Chain of human glucagon receptor (hGCGR) (P47871 26-477): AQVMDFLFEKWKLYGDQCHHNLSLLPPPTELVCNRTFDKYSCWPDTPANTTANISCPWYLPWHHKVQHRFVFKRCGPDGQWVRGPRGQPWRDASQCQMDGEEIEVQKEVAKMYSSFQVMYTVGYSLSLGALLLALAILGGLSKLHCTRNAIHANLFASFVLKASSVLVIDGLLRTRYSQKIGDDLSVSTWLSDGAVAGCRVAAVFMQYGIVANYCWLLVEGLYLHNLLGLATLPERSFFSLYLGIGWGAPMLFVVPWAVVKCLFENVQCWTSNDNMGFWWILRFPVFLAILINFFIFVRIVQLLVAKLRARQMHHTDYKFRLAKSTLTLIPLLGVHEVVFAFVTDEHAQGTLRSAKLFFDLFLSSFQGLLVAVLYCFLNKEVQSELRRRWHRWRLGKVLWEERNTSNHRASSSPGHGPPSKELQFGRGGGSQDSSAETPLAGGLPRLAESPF
How it was run: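 Read-out: HTRF cAMP (anti-cAMP cryptate donor, cAMP-d2 acceptor in conjugate/lysis buffer), converted to % Delta F and fitted by 4-parameter logistic for EC50. Cell densities were 1×10^5 cells/mL (hGLP-1R) or 2×10^5 cells/mL (hGCGR). Stimulation lasted 30 min at room temperature.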

remaining at 5 min, 125 µM [2]: 81%
remaining at 0.25 h, 125 µM [2]: 35%
remaining at 0.5 h, 125 µM [2]: 18%
remaining at 0.5 h (recombinant Neprilysin; isolated enzyme neprilysin): 100%
remaining at 2 h (recombinant Neprilysin; isolated enzyme neprilysin): 100%
remaining at 4 h (recombinant Neprilysin; isolated enzyme neprilysin): 97%
remaining at 24 h (recombinant Neprilysin; isolated enzyme neprilysin): 84%
% intact peptide over time (recombinant Neprilysin): 100%
EC50 [3]: 0.0307 nM
SMILES: CC[C@H](C)[C@H](NC(=O)[C@H](Cc1c[nH]c2ccccc12)NC(=O)[C@H](CCC(=O)O)NC(=O)[C@@H](NC(=O)[C@](C)(Cc1ccccc1)NC(=O)[C@H](CC(=O)O)NC(=O)[C@H](CCC(N)=O)NC(=O)[C@H](C)NC(=O)[C@H](C)NC(=O)[C@H](CCCCNC(=O)CC[C@H](NC(=O)CCCCCCCCCCCCCCCCC(=O)O)C(=O)O)NC(=O)[C@H](CO)NC(=O)[C@H](CC(=O)O)NC(=O)[C@H](CC(C)C)NC(=O)[C@](C)(Cc1ccccc1)NC(=O)[C@H](CCCCN)NC(=O)[C@H](CO)NC(=O)[C@@H](NC(=O)[C@H](CC(=O)O)NC(=O)[C@H](CO)NC(=O)[C@@H](NC(=O)[C@](C)(Cc1ccccc1)NC(=O)[C@H](CO)NC(=O)CNC(=O)[C@H](Cc1c[nH]cn1)NC(=O)C(C)(C)NC(=O)[C@@H](N)Cc1c[nH]cn1)[C@@H](C)O)C(C)C)C(C)C)C(=O)N[C@@H](C)C(=O)N[C@@H](CC(N)=O)C(=O)N[C@H](C(N)=O)[C@@H](C)O [Peptide 7] (H-H[Aib]HGS[αMeF]TSDVSK[αMeF]LDSK([γGlu-C18 diacid])AAQD[αMeF]VEWIANT-NH2; N-terminus assumed)
24 hr % Vehicle Food Intake [1]: 55.0%
WT % glucose change 120 min (wildtype (WT) mice; 1.5 nmol/kg): 5.4%
WT % glucose change 120 min (wildtype (WT) mice; 5 nmol/kg): −21.2%

From patent US20250353891A1 (MEDIMMUNE LIMITED, priority 2022, published 2025)
